What follows are cell lines tested with c1ccc2c(CCNc3ccc(Nc4ccncc4)cc3)c[nH]c2c1 [Serdemetan] + Nc1nc2[nH]cc(CCc3ccc(C(=O)N[C@@H](CCC(=O)O)C(=O)O)cc3)c2c(=O)[nH]1 [Pemetrexed] (partner 0.2 µM) (assay: relative viability (nuclei count vs DMSO), 5 days (fraction); higher = more cells survive). Details: first compound 0.04 µM.
Summary of the method: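 For relative viability, nuclei counts in treated wells were divided by those in vehicle wells. Lung cancer cell lines had been pin-tool dosed in 1536-well plates the day after seeding and cultured for 5 days, then fixed and stained in one step (final 0.05% Triton X-100, 1% formaldehyde, 1 ug/ml Hoechst) and imaged at 4×. Doses were one drug alone or a fixed anchor-drug dose plus five library-drug doses (not always all listed) in √10 steps, and values are duplicate-plate medians.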

| Cell Line | relative viability |
| --- | --- |
| LOU-NH91 | 0.394 |
| ChaGo-K-1 | 0.277 |
| NCI-H2170 | 0.231 |
| NCI-H2405 | 1.04 |
| HOP-62 | 0.293 |
| LU99A | 0.177 |
| BEN | 0.717 |
| HARA | 0.202 |
| HCC-78 | 0.93 |
| NCI-H322M | 0.576 |
| LCLC-97TM1 | 0.147 |
| NCI-H2009 | 1.03 |
| A-427 | 0.958 |
| NCI-H441 | 0.262 |
| NCI-H1734 | 0.44 |
| NCI-H460 | 0.0612 |

| Cell Line | relative viability |
| --- | --- |
| NCI-H2347 | 0.498 |
| SK-LU-1 | 0.941 |
| NCI-H1395 | 0.853 |
| 201T | 0.306 |
| NCI-H1915 | 0.52 |
| HCC-827 | 0.218 |
| LXF-289 | 0.894 |
| NCI-H23 | 0.649 |
| NCI-H647 | 0.164 |
| CAL-12T | 1.17 |
| NCI-H1651 | 0.582 |
| EPLC-272H | 0.316 |
| NCI-H2228 | 0.349 |
| NCI-H1355 | 1.07 |
| NCI-H3122 | 0.182 |

Same assay, conditions: first compound 0.1265 µM

| Cell Line | relative viability |
| --- | --- |
| COR-L23 | 0.208 |
| COR-L 105 | 0.991 |
| LOU-NH91 | 0.383 |
| ChaGo-K-1 | 0.261 |
| NCI-H2170 | 0.288 |
| NCI-H2405 | 1.02 |
| HOP-62 | 0.368 |
| LU99A | 0.182 |
| BEN | 0.614 |
| HARA | 0.254 |
| HCC-78 | 0.879 |
| NCI-H322M | 0.583 |
| LCLC-97TM1 | 0.196 |
| NCI-H2009 | 0.89 |
| A-427 | 0.927 |
| NCI-H441 | 0.293 |
| NCI-H1734 | 0.396 |

| Cell Line | relative viability |
| --- | --- |
| NCI-H460 | 0.0565 |
| NCI-H2347 | 0.429 |
| SK-LU-1 | 0.895 |
| NCI-H1395 | 0.925 |
| 201T | 0.287 |
| NCI-H1915 | 0.517 |
| HCC-827 | 0.191 |
| LXF-289 | 0.989 |
| NCI-H23 | 0.789 |
| NCI-H647 | 0.172 |
| CAL-12T | 1.19 |
| NCI-H1651 | 0.388 |
| EPLC-272H | 0.367 |
| NCI-H2228 | 0.364 |
| NCI-H1355 | 1.02 |
| NCI-H3122 | 0.201 |

Same assay, conditions: first compound 0.4 µM

| Cell Line | relative viability |
| --- | --- |
| COR-L23 | 0.213 |
| COR-L 105 | 0.948 |
| ChaGo-K-1 | 0.372 |
| NCI-H2170 | 0.248 |
| NCI-H2405 | 1.1 |
| HOP-62 | 0.307 |
| LU99A | 0.345 |
| BEN | 0.849 |
| HARA | 0.226 |
| HCC-78 | 0.903 |
| NCI-H322M | 0.622 |
| LCLC-97TM1 | 0.188 |
| NCI-H2009 | 1.1 |
| A-427 | 1.04 |
| NCI-H441 | 0.257 |
| NCI-H1734 | 0.405 |

| Cell Line | relative viability |
| --- | --- |
| NCI-H460 | 0.0655 |
| NCI-H2347 | 0.42 |
| SK-LU-1 | 1.07 |
| NCI-H1395 | 0.886 |
| 201T | 0.29 |
| NCI-H1915 | 0.493 |
| LXF-289 | 0.86 |
| NCI-H23 | 0.722 |
| NCI-H647 | 0.175 |
| CAL-12T | 0.951 |
| NCI-H1651 | 0.505 |
| EPLC-272H | 0.342 |
| NCI-H2228 | 0.325 |
| NCI-H1355 | 0.949 |
| NCI-H3122 | 0.197 |

Same assay, conditions: first compound 1.265 µM

| Cell Line | relative viability |
| --- | --- |
| COR-L23 | 0.192 |
| COR-L 105 | 1.14 |
| ChaGo-K-1 | 0.257 |
| NCI-H2170 | 0.266 |
| NCI-H2405 | 0.609 |
| HOP-62 | 0.333 |
| LU99A | 0.15 |
| BEN | 0.955 |
| HARA | 0.196 |
| HCC-78 | 0.917 |
| NCI-H322M | 0.645 |
| LCLC-97TM1 | 0.153 |
| NCI-H2009 | 0.895 |
| A-427 | 0.698 |
| NCI-H441 | 0.202 |
| NCI-H1734 | 0.171 |
| NCI-H460 | 0.0326 |
| SK-LU-1 | 0.908 |
| NCI-H1395 | 0.705 |
| 201T | 0.332 |
| NCI-H1915 | 0.491 |
| HCC-827 | 0.2 |
| LXF-289 | 0.76 |
| NCI-H647 | 0.179 |
| CAL-12T | 1.19 |
| NCI-H1651 | 0.443 |
| EPLC-272H | 0.269 |
| NCI-H2228 | 0.312 |
| NCI-H1355 | 1.05 |
| NCI-H3122 | 0.178 |

Same assay, conditions: first compound 4 µM

| Cell Line | relative viability |
| --- | --- |
| COR-L23 | 0.186 |
| COR-L 105 | 0.967 |
| LOU-NH91 | 0.419 |
| ChaGo-K-1 | 0.254 |
| NCI-H2170 | 0.284 |
| NCI-H2405 | 0.983 |
| HOP-62 | 0.365 |
| LU99A | 0.16 |
| BEN | 0.634 |
| HARA | 0.257 |
| HCC-78 | 0.915 |
| NCI-H322M | 0.628 |
| LCLC-97TM1 | 0.197 |
| NCI-H2009 | 0.892 |
| A-427 | 0.854 |
| NCI-H441 | 0.225 |
| NCI-H1734 | 0.14 |

| Cell Line | relative viability |
| --- | --- |
| NCI-H460 | 0.064 |
| NCI-H2347 | 0.445 |
| SK-LU-1 | 0.722 |
| NCI-H1395 | 0.518 |
| 201T | 0.353 |
| NCI-H1915 | 0.489 |
| HCC-827 | 0.227 |
| LXF-289 | 0.795 |
| NCI-H23 | 0.763 |
| NCI-H647 | 0.137 |
| CAL-12T | 1.05 |
| NCI-H1651 | 0.323 |
| EPLC-272H | 0.374 |
| NCI-H2228 | 0.253 |
| NCI-H1355 | 0.954 |
| NCI-H3122 | 0.2 |
